Test results published in patent US20210106674A1, “Gene Therapy For Mesothelioma” (The Trustees of the University of Pennsylvania, priority 2019, published 2021).
Marks after values point to notes of the source that are not given here.

Legend:
MPM [1] = assay: Recent published trials of chemotherapy in MPM (historical comparison); format: in vivo; settings: average of three published trials of pemetrexed re-treatment (103 patients)
MPM [2] = settings: published trial, Pem re-treat with pem; cited from earlier work
[3] = test system: serum mesothelin-related protein (SMRP); assay: ELISA of serum mesothelin-related protein (SMRP); format: in vivo, Human; settings: compared to baseline
Source text: See Supplemental Methods for details.

[4] = test system: purified mesothelin and extracts from allogeneic mesothelioma cell lines; assay: Immunoblotting with patient serum for induced anti-tumor antibodies; format: in vivo, Human; parameters: key to Antibody Response: 0 = no change; 1 = marginal changes; 2 = significant changes
Protocol: Enzyme-linked immunosorbent assays (ELISAs) were used to measure IFN-α2b levels (PBL Biomedical Labs; Piscataway, N.J.), as well as serum mesothelin-related protein (SMRP) levels (Fujirebio, Inc., Malvern, Pa.). Neutralizing adenovirus antibody titers (Nabs) were assessed as previously described (5). To detect induced humoral responses against tumor antigens, we performed immunoblotting against purified mesothelin and extracts from allogeneic mesothelioma cell lines using pre- and post-treatment serum as previously described (4-6). See Supplemental Methods for details.
To detect induced humoral responses against tumor antigens, we performed immunoblotting against purified mesothelin and extracts from allogeneic mesothelioma cell lines. Purified mesothelin was purchased from Raybiotech (Norcross, Ga.). Cell lines were derived from patient pleural fluid samples from previous clinical trials and were grown in culture as previously described (Sterman D H, Reico A, Haas A R, et al. A phase I trial of repeated Intrapleural adenoviral-mediated interferon-beta gene transfer for mesothelioma and metastatic pleural effusion. Mol Ther 2010; 18: 852-60). Extracts from cells or purified proteins were prepared and immunoblotted with patient serum (diluted at 1:1500) from time points before treatment, and 6 weeks after treatment as previously described (Sterman et al., 2010). Multiple exposures were obtained and comparisons were made on the exposures in which the major bands detected on pre-treatment blots were of equal intensity in post-treatment blots.
The blots were semi-quantitatively scored as follows: 0=no change in any bands; 1=minimal changes (i.e. increased intensity in one or two bands); 2=clear increases in >2 bands or appearance of new bands.

CD8 T cells and NK cells = assay: Flow cytometry of PBMC: CD69 on CD8 T cells and NK cells; format: in vivo, Human
Protocol: PBMCs were studied from a set of six patients who responded to therapy and 6 patients who progressed with treatment (Table 6).
PBMC were thawed and the activation of natural killer cell (NK) and T cells was assessed using flow cytometry as detailed in the Supplemental Methods (see also Ref 19).
All mAbs were from BD Biosciences (San Diego, Calif.) and R&D systems (Minneapolis, Minn., USA).
Details of the cell preparation and staining have been previously published (Stevenson J P, Kindler H L, Papasavvas E, et al. Immunological effects of anti-transforming growth factor-beta (TGF-beta) antibody GC1008 in cancer patients with malignant pleural mesothelioma (MPM). Oncoimmunology 2013; 8:e26218). Analysis was done by collecting 100,000 live lymphocytes (defined by size and granularity in FSC and SSC). Dead cells were excluded by manual gating in FSC/SSC. Detection thresholds were set according to isotype-matched negative controls. Results were expressed as Mean Fluorescent Intensity (MFI) and percent (%) of lymphocytes, NK cells (Lin3-CD56dimCD16+), CD3+CD4+ or CD3+CD8+ T cells. Data analysis was performed using FloJo software (Tree Star, San Carlos, Calif.).
Data were described as medians, 25th and 75th percentiles. Comparisons between responders (n=6) and non-responders (n=6) at each time point were done using Wilcoxon Kruskal-Wallis tests (Rank Sums). Differences between time points for all patients (n=12) were tested using Wilcoxon Signed-Rank or paired t-tests depending on data distribution, while differences between time points in responders (n=6) and in non-responders (n=6) were tested using Wilcoxon Signed-Rank. p values that were less than 0.05 were considered statistically significant. All statistics used JMP Pro11®.

[5] = post-treatment serum, 39 patients analysed

Nc1nc2[nH]cc(CCc3ccc(C(=O)N[C@@H](CCC(=O)O)C(=O)O)cc3)c2c(=O)[nH]1 [pem, pemetrexed]
Median OS, Average (MPM [1]): 11.7 mo | Response rate, Average (MPM [1]): 18% | TTP/PFS, Average (MPM [1]): 5.1 mo | 2 yr OS (MPM [2]): 30%)

nadofaragene firadenovec [Ad.IFN]
patients with a greater than 20% decrease in SMRP level ([3]; at some time point): 15 of the 27 patients | patients with more than a 20% increase in SMRP level [3]: 12 of the 27 patients | Antibody Response ([4]; patient 402): 2 | Antibody Response ([4]; patient 404): 0 | Antibody Response ([4]; patient 405): 2 | Antibody Response ([4]; patient 406): 1 | Antibody Response ([4]; patient 411): 0 | Antibody Response ([4]; patient 416): 0 | Antibody Response ([4]; patient 417): 2 | Antibody Response ([4]; patient 421): 2 | Antibody Response ([4]; patient 422): 2 | Antibody Response ([4]; patient 423): 1 | Antibody Response ([4]; patient 425): 1 | Antibody Response ([4]; patient 429): 1 | patients with clear increases in anti-tumor bands [4, 5]: 14 patients | patients with minimal changes in tumor bands [4, 5]: 14 patients | patients with no changes in number or intensity of anti-tumor immunoblot bands [4, 5]: 11 patients | CD8 T Cells: % Positive for CD69 (CD8 T cells and NK cells; Good Responders, D 2, median): 26.6 (IQR: 23.2- % | NK Cells: % Positive for CD69 (CD8 T cells and NK cells; Good Responders, D 2, median, p = 0.03 vs Baseline): 66.6* (IQR: 42.1- % | CD8 T Cells: % Positive for CD69 (CD8 T cells and NK cells; Good Responders, D 15, median): 16.6 (IQR: 11.5- % | NK Cells: % Positive for CD69 (CD8 T cells and NK cells; Good Responders, D 15, median): 20.9 (IQR: 5.8- % | CD8 T Cells: % Positive for CD69 (CD8 T cells and NK cells; Poor Responders, D 2, median): 22.1 (IQR: 9.9- % | NK Cells: % Positive for CD69 (CD8 T cells and NK cells; Poor Responders, D 2, median): 33.3 (IQR: 22.8- % | CD8 T Cells: % Positive for CD69 (CD8 T cells and NK cells; Poor Responders, D 15, median): 14.9 (IQR: 10.5- % | NK Cells: % Positive for CD69 (CD8 T cells and NK cells; Poor Responders, D 15, median): 22.7 (IQR: 13.2- %
